{"source": "patent US9205064B2", "about": "“Methods for the diagnosis of oncological disorders using epimetabolic shifters, multidimensional intracellular molecules, or environmental influencers” (Berg LLC, priority 2009, dated 2015)", "key": {"SkBr-3 Cells": {"tested_on": "SkBr-3 Cells", "assay": "Real-time PCR Apoptosis Array", "type": "cell-based, human", "set-up": "key: fold change in mRNA level; negative = down-regulation", "settings": "50 um Q10, 24 hours", "experimental": "RNA was quantified by measuring Optical Density at 260 nm.\nChanges in mRNA levels were evaluated using real-time PCR quantification to assess mRNA levels in pre-selected subsets containing […] pathway specific targets.\nFor the interpretation of mRNA results, the genes that were altered in their mRNA transcription by a two-fold level were identified and evaluated. The level of gene transcription to produce mRNA only provides a rough estimate of potential changes in the level of the expressed protein. The skilled artisan will appreciate that each mRNA may have different rates at which it is degraded or its translation inefficiently, thus resulting in differing amounts of protein.\nThe assay method of RT-PCR was utilized to provide a measure of mRNA level changes to a total of 84 apoptotic pathway related proteins."}, "[1]": {"tested_on": "Pancreatic Cancer Cells (PaCa2)", "assay": "Real-time PCR Apoptosis Array", "type": "cell-based", "settings": "100 uM Q10, various times", "experimental": "Experiments were carried out essentially as described above."}, "[2]": {"tested_on": "PaCa-2 pancreatic cancer cells", "assay": "SeaHorse XF analyzer OCR and ECAR", "type": "cell-based", "description": "Environmental influencers (e.g., MIMs or Epi-shifters) may also be identified by changes in cellular energetics. One example of the measurement of cellular energetics are the real-time measures of the consumption of molecular oxygen and/or the change in pH of the media of a cell culture. For example, the ability of a potential epi-shifter to modulate the metabolic state of a cell may be analyzed using, for example, the XF24 Analyzer (Seahorse, Inc.). This technology allows for real time detection of oxygen and pH changes in a monolayer of cells in order to evaluate the bioenergetics of a cell microenvironment. The XF24 Analyzer measures and compares the rates of oxygen consumption (OCR), which is a measure of aerobic metabolism, and extracellular acidification (ECAR), which is a measure of glycolysis, both key indicators of cellular energetics.\n(SeaHorse Biosciences Inc, North Billerica, Mass.).\nIn contrast, cancer cells (e.g., MCF-7, PaCa-2) are inherently primed to culture at higher levels of glucose compared to normal cells due to their glycolytic phenotype for maintenance in culture.\nIn contrast to normal cells, cancer cells are phenotypically primed to use high glucose for ATP generation (enhanced glycolysis) resulting in higher ECAR (Table 55, ECAR for untreated normoxia 17 mM) at 21 mpH/min. […]"}, "[3]": {"tested_on": "Pyruvate Dehydrogenase beta (PDH-E1)", "assay": "Western blot of pyruvate dehydrogenase beta levels", "type": "cell-based, human", "experimental": "The samples were processed and run on a 4-12% Bis-Tris Novex NuPAGE gel as described above. The gels were run, transferred and stained essentially as described above.\nThe pyruvate kinase blots were stripped by incubating for 30 minutes with methanol, followed by two 10 minute washes with TBS-T, then 30 minutes of incubation with Stripping buffer at 50 deg C., and followed by two washes with 100 ml or more of TBS-T for 30′ each. The 2 blots were scanned in laser scanner to check for complete stripping. After making sure stripping of the antibody and the ECF reagent has worked, the blots were activated with methanol for 5 seconds, washed with water for 5 minutes, and TBST for 15 minutes. The blots are blocked for 1 hour with 5% blocking reagent in TBS-T at room temperature and then washed 3 times with TBS-T (1×-15′; 2×5′ each) and probed with the antibody for Pyruvate Dehydrogenase in 5% BSA (ABNOVA catalog #H00005162-M03) at 1:500 dilutions) overnight at 4 deg C. with shaking. […]\nThe levels of LDH and PDH were determined by probing the blots successively with primary antibodies for LDH and PDH, essentially as described above. […]"}}}
{"compound": "COC1=C(OC)C(=O)C(C/C=C(\\C)CC/C=C(\\C)CC/C=C(\\C)CC/C=C(\\C)CC/C=C(\\C)CC/C=C(\\C)CC/C=C(\\C)CC/C=C(\\C)CC/C=C(\\C)CCC=C(C)C)=C(C)C1=O", "note": "[Q10, Coenzyme Q10]", "values": [{"measurement": "APAF1 mRNA Up-Down Regulation", "setting": "SkBr-3 Cells", "result": 2.6244}, {"measurement": "BAX mRNA Up-Down Regulation", "setting": "SkBr-3 Cells", "result": 3.896}, {"measurement": "BCL2L1 mRNA Up-Down Regulation", "setting": "SkBr-3 Cells", "result": 13.1957}, {"measurement": "BCL2L11 mRNA Up-Down Regulation", "setting": "SkBr-3 Cells", "result": 4.6012}, {"measurement": "BCL2 mRNA Up-Down Regulation", "setting": "SkBr-3 Cells", "result": 5.4717}, {"measurement": "BIRC6 mRNA Up-Down Regulation", "setting": "SkBr-3 Cells", "result": 4.7966}, {"measurement": "BNIP2 mRNA Up-Down Regulation", "setting": "SkBr-3 Cells", "result": 6.3291}, {"measurement": "BRAF mRNA Up-Down Regulation", "setting": "SkBr-3 Cells", "result": 4.3832}, {"measurement": "HPRT1 mRNA Up-Down Regulation", "setting": "SkBr-3 Cells", "result": "−160.6748"}, {"measurement": "XIAP mRNA Up-Down Regulation", "setting": "SkBr-3 Cells", "result": 4.3832}, {"measurement": "mRNA of ABL1, AKT1, Bcl2L1, BclAF1, CASP1, CASP2, CASP6, CIDEA, FADD, LTA, TNF, TNFSF10A and TNFSF10", "setting": "[1]", "result": "modulated"}, {"measurement": "OCR values", "setting": "[2]; absence and presence of stressors", "result": "consistent reduction"}, {"measurement": "ECAR rates", "setting": "[2]; normoxia, high glucose", "result": "significant decrease"}, {"measurement": "expression of PDH-E1", "setting": "[3]; cancer cells", "result": "progressive increase"}, {"measurement": "expression of PDH-E1", "setting": "[3]; normal cells", "result": "minimal changes"}]}
